This note sets out measurements from US20250163104A1, “MACROCYCLIC IMMUNOMODULATORS” (priority 2021, published 2025).

Where a SMILES comes first, the peptide text is derived from it. Bridges are numbered along the chain shown (N, C = ends). [ ]: non-standard residue; d: D form. The star is where a group is joined. ξ: configuration not given here. Phe(4-COOH) = N[C@@H](Cc1ccc(C(=O)O)cc1)C(=O)O; Bip = N[C@@H](Cc1ccc(-c2ccccc2)cc1)C(=O)O; Phe(3-Me) = Cc1cccc(C[C@H](N)C(=O)O)c1; Val(3-OH) = CC(C)(O)[C@H](N)C(=O)O; 4Pal = N[C@@H](Cc1ccncc1)C(=O)O; 2Thi = N[C@@H](Cc1cccs1)C(=O)O; Cha = N[C@@H](CC1CCCCC1)C(=O)O; Cit = NC(=O)NCCC[C@H](N)C(=O)O; dCha = N[C@H](CC1CCCCC1)C(=O)O; Thr(3ξ) = CC(O)[C@H](N)C(=O)O; Carboxymethyl = O=C(O)C*; Nle = CCCC[C@H](N)C(=O)O; Orn = NCCC[C@H](N)C(=O)O; Pra = C#CC[C@H](N)C(=O)O; Dab = NCC[C@H](N)C(=O)O; Dap = NC[C@H](N)C(=O)O; Piv = CC(C)(C)C(=O)*; Propargyl = C#CC*

This assay deals with T1, human PD-1 / PD-L1-Ig binding on Jurkat cell line over-expressing human PD-1 (Jurkat-PD-1) (Homo sapiens, UniProt Q15116).
T1 construct: expressed in transfected cells; host or cells: Jurkat
T1 sequence (Q15116 25-288): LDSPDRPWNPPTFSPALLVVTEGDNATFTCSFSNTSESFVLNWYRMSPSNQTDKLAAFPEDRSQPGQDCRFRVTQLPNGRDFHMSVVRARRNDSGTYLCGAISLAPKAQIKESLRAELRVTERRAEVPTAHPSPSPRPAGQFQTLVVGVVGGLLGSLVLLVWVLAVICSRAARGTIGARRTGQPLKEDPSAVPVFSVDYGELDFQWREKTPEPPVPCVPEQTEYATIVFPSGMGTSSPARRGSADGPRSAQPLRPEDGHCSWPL
Description: Jurkat-PD-1 Cell Binding High-Content Screening Assay (CBA). The note with it: Jurkat-PD-1 cells, PE-labeled PD-L1-Ig 20 nM final; read-out: Jurkat HPD1_PDL1 IC50. Format: cell-based. The method in brief: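 PE-PD-L1-Ig 20 nM final; cells in DMEM/10% FCS; cpd pre-incubation 2 h, 37° C; ligand 1 h; PFA fix + Hoechst 33342; high-content imaging read-out.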

By IC50 is commonly meant the concentration that inhibits the measured activity by half. `CC(C)[C@@H]1NC(=O)[C@H](Cc2c[nH]c3ccccc23)NC(=O)[C@H](CC(=O)O)NC(=O)[C@H](Cc2ccc(OCC(=O)O)cc2)NC(=O)[C@H](Cc2ccncc2)NC(=O)CSC[C@@H](C(=O)N[C@@H](C)C(N)=O)NC(=O)[C@H]([C@@H](C)O)NC(=O)[C@H](C(C)C)NC(=O)[C@H](CC2CCCCC2)NC(=O)[C@H](CCN)NC(=O)[C@@H](CC2CCCCC2)NC(=O)[C@H](CCCN)NC(=O)[C@H](C(C)C)NC(=O)[C@H](Cc2ccc(-c3ccccc3)cc2)NC1=O` [Compound 1636] ({CH2CO}-[4Pal]Y(Carboxymethyl)DWV[Bip]V[Orn][dCha][Dab][Cha]VTCA-NH2; thioether N-14): the IC50 worked out at 19.7 nM. The figure for `CC(C)C[C@H]1NC(=O)[C@H](CCCN)NC(=O)[C@H](CCC(=O)O)NC(=O)[C@H](Cc2ccc(-c3ccccc3)cc2)NC(=O)[C@H](C(C)C)NC(=O)[C@H](Cc2c[nH]c3ccccc23)NC(=O)[C@H](CC(=O)O)NC(=O)[C@H](Cc2cccs2)NC(=O)[C@H](Cc2ccncc2)NC(=O)CSC[C@@H](C(=O)N[C@@H](C)C(N)=O)NC(=O)[C@H]([C@@H](C)O)NC(=O)[C@H](C(C)C)NC(=O)[C@H](CC2CCCCC2)NC(=O)[C@H](CCN)NC1=O` [Compound 2194] ({CH2CO}-[4Pal][2Thi]DWV[Bip]E[Orn][dL][Dab][Cha]VTCA-NH2; thioether N-14) is 16.5 nM; for `CC(C)C[C@H]1NC(=O)[C@H](CCCN)NC(=O)[C@H](CCCNC(N)=O)NC(=O)[C@H](Cc2ccc(-c3ccccc3)cc2)NC(=O)[C@H](C(C)C)NC(=O)[C@H](Cc2c[nH]c3ccccc23)NC(=O)[C@H](CC(=O)O)NC(=O)[C@H](Cc2cccc3ccccc23)NC(=O)[C@H](CN)NC(=O)CSC[C@@H](C(=O)N[C@@H](C)C(N)=O)NC(=O)[C@H]([C@@H](C)O)NC(=O)[C@H](C(C)C)NC(=O)[C@H](CC2CCCCC2)NC(=O)[C@H](CCN)NC1=O` [Compound 2115] it is 53.4 nM. With `C#CCOc1ccc(C[C@@H]2NC(=O)[C@H](C(C)C)NC(=O)[C@H](CC3CCCCC3)NC(=O)[C@H](CCN)NC(=O)[C@@H](CC(C)C)NC(=O)[C@H](CCCN)NC(=O)[C@H](Cc3ccc(OCC(=O)O)cc3)NC(=O)[C@H](Cc3ccc(-c4ccccc4)cc3)NC(=O)[C@H](Cc3ccc(OCC(=O)O)cc3)NC(=O)[C@H](Cc3cccc(C)c3)NC(=O)[C@H](CC(=O)O)NC(=O)[C@H](Cc3ccc(OCC(=O)O)cc3)NC(=O)[C@H](CN)NC(=O)CSC[C@@H](C(=O)N[C@@H](CCN)C(N)=O)NC2=O)cc1` [Compound 1816] ({CH2CO}-[Dap]Y(Carboxymethyl)D[Phe(3-Me)]Y(Carboxymethyl)[Bip]Y(Carboxymethyl)[Orn][dL][Dab][Cha]VY(Propargyl)C[Dab]-NH2; thioether N-14), the IC50 stood at 11.9 nM. `CC[C@H](C)[C@@H]1NC(=O)[C@H](Cc2ccc(-c3ccccc3)cc2)NC(=O)[C@H](C(C)C)NC(=O)[C@H](Cc2c[nH]c3ccccc23)NC(=O)[C@H](CC(=O)O)NC(=O)[C@H](Cc2ccc(O)cc2)NC(=O)[C@H](CN)NC(=O)CSC[C@@H](C(=O)N[C@@H](C)C(N)=O)NC(=O)[C@H]([C@@H](C)O)NC(=O)[C@H](C(C)C)NC(=O)[C@H](CC2CCCCC2)NC(=O)[C@H](CCN)NC(=O)[C@@H](CC(C)C)NC(=O)[C@H](CCCN)NC1=O` [Compound 1159]: the IC50 came to 8.1 nM. Regarding `C#CC[C@H](NC(=O)[C@H](CCN)NC(=O)[C@@H]1CSCC(=O)N[C@@H](CN)C(=O)N[C@@H](Cc2ccc(OCC(=O)O)cc2)C(=O)N[C@@H](CC(=O)O)C(=O)N[C@@H](Cc2cccc(C)c2)C(=O)N[C@@H](Cc2ccc(OCC(=O)O)cc2)C(=O)N[C@@H](Cc2ccc(-c3ccccc3)cc2)C(=O)N[C@@H](Cc2ccc(OCC(=O)O)cc2)C(=O)N[C@@H](CCCN)C(=O)N[C@H](CC(C)C)C(=O)N[C@@H](CCN)C(=O)N[C@@H](CC2CCCCC2)C(=O)N[C@@H](C(C)(C)O)C(=O)N[C@@H]([C@@H](C)O)C(=O)N1)C(N)=O` [Compound 1858] ({CH2CO}-[Dap]Y(Carboxymethyl)D[Phe(3-Me)]Y(Carboxymethyl)[Bip]Y(Carboxymethyl)[Orn][dL][Dab][Cha][Val(3-OH)]TC[Dab][Pra]-NH2; thioether N-14), the IC50 was determined as 5 nM. Take `Cc1cccc(C[C@@H]2NC(=O)[C@H](CC(=O)O)NC(=O)[C@H](Cc3ccc(OCC(=O)O)cc3)NC(=O)[C@H](CN)NC(=O)CSC[C@@H](C(=O)N[C@@H](CCN)C(N)=O)NC(=O)[C@H](CCCN)NC(=O)[C@H](C(C)C)NC(=O)[C@H](CC3CCCCC3)NC(=O)[C@H](CCN)NC(=O)[C@@H](CC(C)C)NC(=O)[C@H](CCNC(=O)C(C)(C)C)NC(=O)[C@H](Cc3ccc(O)cc3)NC(=O)[C@H](Cc3ccc(-c4ccccc4)cc3)NC(=O)[C@H](Cc3ccc(O)cc3)NC2=O)c1` [Compound 2038] ({CH2CO}-[Dap]Y(Carboxymethyl)D[Phe(3-Me)]Y[Bip]Y[Dab](Piv)[dL][Dab][Cha]V[Orn]C[Dab]-NH2; thioether N-14): the IC50 amounted to 19.4 nM. The figure for `CCC[C@@H]1NC(=O)[C@H](Cc2c[nH]c3ccccc23)NC(=O)[C@H](CC(=O)O)NC(=O)[C@H](Cc2ccc(OCC(=O)O)cc2)NC(=O)[C@H](CN)NC(=O)CSC[C@@H](C(=O)N[C@@H](C)C(N)=O)NC(=O)[C@H]([C@@H](C)O)NC(=O)[C@H](C(C)C)NC(=O)[C@H](CC2CCCCC2)NC(=O)[C@H](CCN)NC(=O)[C@@H](CC(C)C)NC(=O)[C@H](CCCN)NC(=O)[C@H]([C@@H](C)CC)NC(=O)[C@H](Cc2ccc(-c3ccccc3)cc2)NC1=O` [Compound 1727] is 9.1 nM; for `CC(C)C[C@H]1NC(=O)[C@H](CCCN)NC(=O)[C@H](CCCCN)NC(=O)[C@H](Cc2ccc(-c3ccccc3)cc2)NC(=O)[C@H](C(C)C)NC(=O)[C@H](Cc2c[nH]c3ccccc23)NC(=O)[C@H](CC(=O)O)NC(=O)[C@H](Cc2ccc(OCC(=O)O)cc2)NC(=O)[C@H](CN)NC(=O)CSC[C@@H](C(=O)N[C@@H](C)C(N)=O)NC(=O)[C@H]([C@@H](C)O)NC(=O)[C@H](C(C)C)NC(=O)[C@H](CC2CCCCC2)NC(=O)[C@H](CCN)NC1=O` [Compound 1377] ({CH2CO}-[Dap]Y(Carboxymethyl)DWV[Bip]K[Orn][dL][Dab][Cha]VTCA-NH2; thioether N-14) it is 8.9 nM. For the compound `CC[C@H](C)[C@@H]1NC(=O)[C@H](Cc2ccc(-c3ccccc3)cc2)NC(=O)[C@H](C(C)C)NC(=O)[C@H](Cc2c[nH]c3ccccc23)NC(=O)[C@H](CC(=O)O)NC(=O)[C@H](Cc2ccc(O)cc2)NC(=O)[C@H](CC(N)=O)NC(=O)CSC[C@@H](C(=O)N[C@@H](C)C(N)=O)NC(=O)[C@H]([C@@H](C)O)NC(=O)[C@H](C(C)C)NC(=O)[C@H](CC(C)C)NC(=O)[C@H](CCN)NC(=O)[C@@H](CC(C)C)NC(=O)[C@H](CCCN)NC1=O` [Compound 1038] ({CH2CO}-NYDWV[Bip]I[Orn][dL][Dab]LVTCA-NH2; thioether N-14), the concentration for half-maximal inhibition (IC50) stood at 7 nM. For `CCCC[C@@H]1NC(=O)[C@H](CCN)NC(=O)[C@@H](CC(C)C)NC(=O)[C@H](CCCN)NC(=O)[C@H](CCCNC(N)=O)NC(=O)[C@H](Cc2ccc(-c3ccccc3)cc2)NC(=O)[C@H](C(C)C)NC(=O)[C@H](Cc2cccc(C)c2)NC(=O)[C@H](CC(=O)O)NC(=O)[C@H](Cc2ccc(C(=O)O)cc2)NC(=O)[C@H](CN)NC(=O)CSC[C@@H](C(=O)N[C@@H](C)C(N)=O)NC(=O)[C@H]([C@@H](C)O)NC(=O)[C@H](C(C)C)NC1=O` [Compound 1201] ({CH2CO}-[Dap][Phe(4-COOH)]D[Phe(3-Me)]V[Bip][Cit][Orn][dL][Dab][Nle]VTCA-NH2; thioether N-14), the IC50 was found to be 3.4 nM. As for `Cc1cccc(C[C@@H]2NC(=O)[C@H](CC(=O)O)NC(=O)[C@H](Cc3ccc(C(=O)O)cc3)NC(=O)[C@H](Cc3ccc(OCC(=O)O)cc3)NC(=O)CSC[C@@H](C(=O)N[C@@H](C)C(N)=O)NC(=O)[C@H]([C@@H](C)O)NC(=O)[C@H](C(C)C)NC(=O)[C@H](CC3CCCCC3)NC(=O)[C@H](CCN)NC(=O)[C@@H](CC(C)C)NC(=O)[C@H](CCCN)NC(=O)[C@H](CCN)NC(=O)[C@H](Cc3ccc(-c4ccccc4)cc3)NC(=O)[C@H](C(C)C)NC2=O)c1` [Compound 1415], the IC50 amounted to 13.8 nM. As to `C#CCOc1ccc(C[C@@H]2NC(=O)[C@H](CCCNC(=N)N)NC(=O)CSC[C@@H](C(=O)N[C@@H](CCN)C(N)=O)NC(=O)[C@H](CCC(=O)O)NC(=O)[C@H](C(C)C)NC(=O)[C@H](CC3CCCCC3)NC(=O)[C@H](CCN)NC(=O)[C@@H](CC(C)C)NC(=O)[C@H](CCCN)NC(=O)[C@H](Cc3ccc(OCC(=O)O)cc3)NC(=O)[C@H](Cc3ccc(-c4ccccc4)cc3)NC(=O)[C@H](Cc3ccc(OCC(=O)O)cc3)NC(=O)[C@H](Cc3cccc(C)c3)NC(=O)[C@H](CC(=O)O)NC2=O)cc1` [Compound 1815] ({CH2CO}-RY(Propargyl)D[Phe(3-Me)]Y(Carboxymethyl)[Bip]Y(Carboxymethyl)[Orn][dL][Dab][Cha]VEC[Dab]-NH2; thioether N-14), the IC50 was 22.2 nM. As for `CC(C)C[C@H]1NC(=O)[C@H](CCCN)NC(=O)[C@H](C(C)C)NC(=O)[C@H](Cc2ccc(-c3ccccc3)cc2)NC(=O)[C@H](C(C)C)NC(=O)[C@H](Cc2c[nH]c3ccccc23)NC(=O)[C@H](CC(=O)O)NC(=O)[C@H](Cc2ccc(OCC(=O)O)cc2)NC(=O)[C@H](C(C)O)NC(=O)CSC[C@@H](C(=O)N[C@@H](CC(N)=O)C(N)=O)NC(=O)[C@H](CO)NC(=O)[C@H](C(C)C)NC(=O)[C@H](CC2CCCCC2)NC(=O)[C@H](CCN)NC1=O` (stereo partly drawn) [Compound 2550] ({CH2CO}-[Thr(3ξ)]Y(Carboxymethyl)DWV[Bip]V[Orn][dL][Dab][Cha]VSCN-NH2; thioether N-14), the IC50 was 4.9 nM.
